From patent US8962842B2, “2-pyridone antimicrobial compositions” (priority 2010, dated 2015)
Like-named read-outs stand apart in the source and are kept apart here.

Legend:
[1] = tested on: Enterococcus faecalis (5 strains); experiment: MIC range, broader panel of Quotient Bioresearch strains (Table 3)
[2] = tested on: Haemophilus influenza (5 strains); experiment: MIC range, broader panel of Quotient Bioresearch strains (Table 4); assay type: cell-based, Haemophilus influenzae
[3] = tested on: Bacterial strains injected into thigh muscles; assay type: in vivo, mice
[4] = Metabolic stability in liver microsomes +/- S9 fraction (Table 8); assay type: in vitro ADME; details: 1 μM
Protocol: Metabolic stability of a select number of examples was tested in liver microsomes+/−addition of S9 fraction as described by Kuhnz, W. and Gieschen, H. (1998), Drug Metab. Dispos., 1120-1127. Test concentration was 1 μM and HPLC/MS-MS was used for detection.

[5] = tested on: Streptococcus pyogenes (4 strains); experiment: MIC range, broader panel of Quotient Bioresearch strains (Table 3)
[6] = tested on: Burkholderia cepacia (5 strains); experiment: MIC range, broader panel of Quotient Bioresearch strains (Table 4); assay type: cell-based
[7] = tested on: Acinetobacter baumannii, quinolone-resistant strains (Quotient Bioresearch catalogue); experiment: MIC against pathogens resistant against quinolones (Table 5); assay type: cell-based
physchem = assay type: physicochemical; details: thermodynamic from solid
Protocol: The solutions were incubated at room temperature for 24 hours before quantification by HPLC detection. Aqueous solubility was evaluated in simulated gastric fluid (SGF), simulated intestinal fluid (SIF) and phosphate buffer saline (PBS) pH 7.4. Aqueous solubility is expressed in Table 11 as mean solubility in μM.

[8] = tested on: Streptococcus pneumonia (5 strains); experiment: MIC range, broader panel of Quotient Bioresearch strains (Table 3); details: Streptococcus pneumoniae
[9] = tested on: Acinetobacter baumannii (12 strains); experiment: MIC range, broader panel of Quotient Bioresearch strains (Table 4); assay type: cell-based
[10] = tested on: Staphylococcus aureus (16 strains); experiment: MIC range, broader panel of Quotient Bioresearch strains (Table 3)
[11] = tested on: Escherichia coli (6 strains); experiment: MIC range, broader panel of Quotient Bioresearch strains (Table 4); assay type: cell-based
[12] = tested on: Klebsiella pneumonia (4 strains); experiment: as above; assay type: cell-based; details: Klebsiella pneumoniae
[13] = tested on: Pseudomonas aeruginosa (12 strains); experiment: as above; assay type: cell-based
[14] = tested on: Group C Streptococcus (4 strains); experiment: MIC range, broader panel of Quotient Bioresearch strains (Table 3)
[15] = tested on: Enterococcus faecium (3 strains); experiment: as above

**Q.** With `Cc1c(-c2ccc(O)cc2)ccn2c(=O)c(C(=O)[O-])cc(C3CC3)c12.[K+]` [Example 46 K salt, potassium 1-cyclopropyl-8-(4-hydroxy-phenyl)-9-methyl-4-oxo-4H-quinolizine-3-carboxylate] as the compound, how does the MIC ([1]; read-out: MIC Range Low, Enterococcus faecalis (5 strains)) read?
**A.** The MIC was no more than 0.015 µg/mL.

**Q.** And the MIC50 ([1]; read-out: MIC Range Median, Enterococcus faecalis (5 strains))?
**A.** Its MIC50 is 0.03 µg/mL.

**Q.** And the MIC50 ([2]; 16 h, Median of the strain panel)?
**A.** The MIC50 was no more than 0.015 µg/mL.

**Q.** What about the MIC ([2]; High of the strain panel, read-out: MIC Range High, Haemophilus influenza (5 strains)) of the same compound?
**A.** The MIC was no more than 0.015 µg/mL.

**Q.** What about the MIC ([2]; Low of the strain panel, read-out: MIC Range Low, Haemophilus influenza (5 strains)) of the same compound?
**A.** The MIC was no more than 0.015 µg/mL.

**Q.** What about the “Log reduction (LgR) from vehicle control (CFU/g)” value (from here on “Log reduction (LgR)”) ([3]; E. coli ATCC 25922, mouse thigh, 30 mg/kg TDS p.o.) of the same compound?
**A.** Its value is 0.37.

**Q.** What about the “Log reduction (LgR)” value ([3]; MRSA ATCC 43300, mouse thigh, 30 mg/kg TDS p.o.) of the same compound?
**A.** Its value is 3.76.

**Q.** What about the “Mean Parent Remaining” value ([4]; Liver microsomes + S9, human) of the same compound?
**A.** Its value is 97%.

**Q.** And the “Mean Parent Remaining” value ([4]; Liver microsomes + S9, mouse)?
**A.** The value was 92%.

**Q.** And the “Mean Parent Remaining” value ([4]; Liver microsomes, human)?
**A.** Its value is 86%.

**Q.** And the “Mean Parent Remaining” value ([4]; Liver microsomes, mouse)?
**A.** The value was 81%.

**Q.** What about the MIC ([5]; read-out: MIC Range High, Streptococcus pyogenes (4 strains)) of the same compound?
**A.** The MIC was 0.12 µg/mL.

**Q.** And the MIC ([5]; read-out: MIC Range Low, Streptococcus pyogenes (4 strains))?
**A.** Its MIC is 0.03 µg/mL.

**Q.** What about the MIC50 ([5]; read-out: MIC Range Median, Streptococcus pyogenes (4 strains)) of the same compound?
**A.** Its MIC50 is 0.06 µg/mL.

**Q.** What about the MIC ([6]; read-out: MIC Range High, Burkholderia cepacia (5 strains)) of the same compound?
**A.** The MIC was 0.12 µg/mL.

**Q.** And the MIC ([6]; read-out: MIC Range Low, Burkholderia cepacia (5 strains))?
**A.** Its MIC is 0.06 µg/mL.

**Q.** And the MIC50 ([6]; read-out: MIC Range Median, Burkholderia cepacia (5 strains))?
**A.** Its MIC50 is 0.12 µg/mL.

**Q.** And the MIC ([7]; Acinetobacter baumannii, GN54)?
**A.** Its MIC is 2 µg/mL.

**Q.** And the solubility at 24 h (physchem; fassgf or other biorelevant)?
**A.** Its solubility at 24 h is 153 µM.

**Q.** And the solubility at 24 h (physchem; pH 7.4, aqueous buffer)?
**A.** Its solubility at 24 h is 44 µM.

**Q.** And the solubility at 24 h (physchem; simulated gastric fluid)?
**A.** Its solubility at 24 h is 7 µM.

**Q.** And the MIC ([8]; read-out: MIC Range Low, Streptococcus pneumonia (5 strains))?
**A.** Its MIC is 0.06 µg/mL.

**Q.** And the MIC50 ([8]; read-out: MIC Range Median, Streptococcus pneumonia (5 strains))?
**A.** The MIC50 was 0.06 µg/mL.

**Q.** What about the MIC ([9]; read-out: MIC Range High, Acinetobacter baumannii (12 strains)) of the same compound?
**A.** Its MIC is 16 µg/mL.

**Q.** And the MIC ([9]; read-out: MIC Range Low, Acinetobacter baumannii (12 strains))?
**A.** The MIC was 0.03 µg/mL.

**Q.** What about the MIC50 ([9]; read-out: MIC Range Median, Acinetobacter baumannii (12 strains)) of the same compound?
**A.** Its MIC50 is 4 µg/mL.

**Q.** What about the MIC ([10]; read-out: MIC Range High, Staphylococcus aureus (16 strains)) of the same compound?
**A.** The MIC was 0.12 µg/mL.

**Q.** What about the MIC ([10]; read-out: MIC Range Low, Staphylococcus aureus (16 strains)) of the same compound?
**A.** The MIC was no more than 0.015 µg/mL.

**Q.** And the MIC50 ([10]; read-out: MIC Range Median, Staphylococcus aureus (16 strains))?
**A.** The MIC50 was 0.06 µg/mL.

**Q.** What about the MIC ([11]; read-out: MIC Range High, Escherichia coli (6 strains)) of the same compound?
**A.** Its MIC is 32 µg/mL.

**Q.** And the MIC ([11]; read-out: MIC Range Low, Escherichia coli (6 strains))?
**A.** The MIC was no more than 0.015 µg/mL.

**Q.** What about the MIC50 ([11]; read-out: MIC Range Median, Escherichia coli (6 strains)) of the same compound?
**A.** The MIC50 was 12 µg/mL.

**Q.** And the MIC ([12]; read-out: MIC Range High, Klebsiella pneumonia (4 strains))?
**A.** Its MIC is greater than 32 µg/mL.

**Q.** And the MIC ([12]; read-out: MIC Range Low, Klebsiella pneumonia (4 strains))?
**A.** Its MIC is 0.06 µg/mL.

**Q.** And the MIC50 ([12]; read-out: MIC Range Median, Klebsiella pneumonia (4 strains))?
**A.** Its MIC50 is 18 µg/mL.

**Q.** What about the MIC ([13]; read-out: MIC Range High, Pseudomonas aeruginosa (12 strains)) of the same compound?
**A.** Its MIC is greater than 32 µg/mL.

**Q.** And the MIC ([13]; read-out: MIC Range Low, Pseudomonas aeruginosa (12 strains))?
**A.** Its MIC is 0.25 µg/mL.

**Q.** What about the MIC50 ([13]; read-out: MIC Range Median, Pseudomonas aeruginosa (12 strains)) of the same compound?
**A.** Its MIC50 is 4 µg/mL.

**Q.** What about the MIC ([14]; read-out: MIC Range High, Group C Streptococcus (4 strains)) of the same compound?
**A.** The MIC was 0.06 µg/mL.

**Q.** What about the MIC ([14]; read-out: MIC Range Low, Group C Streptococcus (4 strains)) of the same compound?
**A.** The MIC was 0.03 µg/mL.

**Q.** And the MIC50 ([14]; read-out: MIC Range Median, Group C Streptococcus (4 strains))?
**A.** The MIC50 was 0.045 µg/mL.

**Q.** And the MIC ([15]; read-out: MIC Range Low, Enterococcus faecium (3 strains))?
**A.** The MIC was 0.12 µg/mL.

**Q.** What about the MIC50 ([15]; read-out: MIC Range Median, Enterococcus faecium (3 strains)) of the same compound?
**A.** The MIC50 was 0.5 µg/mL.

**Q.** Which MIC ([7]; strain GN54, Acinetobacter baumannii levofloxacin-resistant clinical isolate, read-out: MIC) does the source give for `C[C@H]1COc2c(N3CCN(C)CC3)c(F)cc3c(=O)c(C(=O)O)cn1c23` [Levofloxacin, reference compound] here?
**A.** Its MIC is no less than 16 µg/mL.

**Q.** With `CN[C@H](CC(C)C)C(=O)N[C@H]1C(=O)N[C@@H](CC(N)=O)C(=O)N[C@H]2C(=O)N[C@H]3C(=O)N[C@H](C(=O)N[C@H](C(=O)O)c4cc(O)cc(O)c4-c4cc3ccc4O)[C@H](O)c3ccc(c(Cl)c3)Oc3cc2cc(c3O[C@@H]2O[C@H](CO)[C@@H](O)[C@H](O)[C@H]2O[C@H]2C[C@](C)(N)[C@H](O)[C@H](C)O2)Oc2ccc(cc2Cl)[C@H]1O` [vancomycin] as the compound, how does the “Log reduction (LgR)” value ([3]; MRSA ATCC 43300, mouse thigh, 25 mg/kg i.v. once) read?
**A.** The value was 2.71.
